In paper PMC10895674, “First-in-Class Dual EZH2-HSP90 Inhibitor Eliciting Striking Antiglioblastoma Activity In Vitro and In Vivo” (Journal of Medicinal Chemistry, 2024):
Where two headings read alike, the source gives them in different places.

How the values were obtained:
[1] = system: TMZ-resistant cells (Pt3R); test: Cell viability CCK8 assay; format: cell-based, human; settings: Homo sapiens, 72 h, CCK8, read-out: IC50, cell growth inhibitory effects
Description: The CCK8 reagent was purchased from TargetMOI (Wellesley Hills, MA) and used according to the manufacturer’s instruction.

[2] = system: blood–brain barrier (BBB); test: BBB permeability (chamber coated with endothelial cells and astrocytes, MTT of Pt#3-R in lower chamber); format: in vitro ADME; settings: upper chamber, 72 h; 0, 1, 5, 10 (mM printed); viability of Pt#3-R in lower chamber by MTT
Procedure: Fig. S1 Compound 7 was added in the upper chamber coated with endothelial cells and astrocytes, and incubated
for 72 h. Subsequently, the viability of Pt#3-R in the lower chamber was analyzed by the MTT assay. As shown […]

HSP90a = HSP90a (Homo sapiens, UniProt P07900); test: In vitro Hsp90 assay (Reaction Biology Corp.); format: biochemical; settings: 10-dose IC50 mode, 3-fold serial dilution starting at 10 μM, single experiment; '-' read as no inhibition
Procedure: The HSP90 inhibitory activity of the synthesized adduct was assessed by Reaction Biology Corporation Malvern, PA. (http://www.reactionbiology.com).

[3] = Pharmacokinetics IV and PO; set-up: species or system Rat; settings: in vivo
Procedure: Table S1: Pharmacokinetic data of compound 7
Rat IV (dose: 2 mg/kg) Rat PO (dose: 20 mg/kg)
T1/2 CL Vss AUC(0-inf) T1/2 Cmax Tmax AUC(0-inf) F
(hr) (ml/min/kg) (l/kg) (ng/mL*hr) (hr) (ng/ml) (hr) (ng/mL*hr) (%)
Sample Time (hr) Avg. S.D.

Pt#3-R-induced tumor = test: In vivo anti-GBM efficacy, Pt3R xenograft; settings: 20 mg/kg, intraperitoneally twice per week, NOD.CB17-Prkdc scid mice
Procedure: In vivo anti-GBM efficacy of compound 7 was also evaluated in this study. For the in vivo study, experimental NOD.CB17-Prkdc^scid/NCrCrl mice (8-week-old) were used and Pt3R cells (1 × 10^6) in 50 μL Dulbecco’s modified Eagle’s medium (DMEM) were injected into the back of mice. After 10 days, the tumor was detectable. […] In a nutshell, the outcome of the in vivo study ascertains that the remarkable in vitro anti-GBM activity profile of dual inhibitor 7 was translated to the in vivo potential.
Animal experiments were approved by the institutional animal care and use committee of Taipei Medical University (IACUC: LAC2022-0288). Male NOD.CB17-Prkdc^scid/NCrCrl mice (8-week-old) were purchased from BioLASCO Taiwan Co., Ltd. (Taipei, Taiwan). Pt3R cells (1 × 10^6) in 50 μL of DMEM were injected into the back of mice. Experimental mice were grouped as follows (Figure 11): DMSO (n = 5), C7–10 mg/kg (n = 4), C7–20 mg/kg (n = 6), TAZ-10 mg/kg (n = 6), TAZ-20 mg/kg (n = 8), STA-5+TAZ-5 mg/kg (n = 7), STA-10+TAZ-10 mg/kg (n = 7) and STA-15+TAZ-15 mg/kg (n = 7). After 10 days, the tumor was touchable. Mice were injected intraperitoneally with DMSO (the control group) or compounds twice per week.

EZH2 = EZH2 (Homo sapiens, UniProt Q15910); test: EZH2 inhibition assay (Reaction Biology Corp.); format: biochemical; settings: 10-dose IC50 mode, 3-fold serial dilution starting at 10 μM, single experiment
EZH2, sequence (Q15910 whole entry): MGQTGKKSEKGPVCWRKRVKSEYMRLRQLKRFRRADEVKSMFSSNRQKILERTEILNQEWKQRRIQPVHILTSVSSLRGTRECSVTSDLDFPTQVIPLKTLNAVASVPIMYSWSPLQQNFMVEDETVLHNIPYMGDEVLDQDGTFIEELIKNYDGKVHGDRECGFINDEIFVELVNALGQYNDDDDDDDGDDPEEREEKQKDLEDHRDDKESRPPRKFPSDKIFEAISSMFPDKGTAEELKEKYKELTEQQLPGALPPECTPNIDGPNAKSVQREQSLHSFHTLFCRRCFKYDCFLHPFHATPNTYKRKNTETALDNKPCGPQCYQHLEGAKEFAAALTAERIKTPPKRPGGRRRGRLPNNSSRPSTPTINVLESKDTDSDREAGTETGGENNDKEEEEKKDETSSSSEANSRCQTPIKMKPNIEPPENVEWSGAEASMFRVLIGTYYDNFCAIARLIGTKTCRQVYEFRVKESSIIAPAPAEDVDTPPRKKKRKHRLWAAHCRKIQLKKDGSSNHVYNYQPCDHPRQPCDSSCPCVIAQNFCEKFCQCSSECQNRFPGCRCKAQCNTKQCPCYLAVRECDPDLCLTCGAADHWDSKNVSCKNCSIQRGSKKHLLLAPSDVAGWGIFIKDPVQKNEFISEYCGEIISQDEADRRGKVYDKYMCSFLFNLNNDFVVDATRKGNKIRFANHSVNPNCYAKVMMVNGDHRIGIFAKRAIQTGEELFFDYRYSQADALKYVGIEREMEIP
EZH2, sequence (O75530 whole entry partner): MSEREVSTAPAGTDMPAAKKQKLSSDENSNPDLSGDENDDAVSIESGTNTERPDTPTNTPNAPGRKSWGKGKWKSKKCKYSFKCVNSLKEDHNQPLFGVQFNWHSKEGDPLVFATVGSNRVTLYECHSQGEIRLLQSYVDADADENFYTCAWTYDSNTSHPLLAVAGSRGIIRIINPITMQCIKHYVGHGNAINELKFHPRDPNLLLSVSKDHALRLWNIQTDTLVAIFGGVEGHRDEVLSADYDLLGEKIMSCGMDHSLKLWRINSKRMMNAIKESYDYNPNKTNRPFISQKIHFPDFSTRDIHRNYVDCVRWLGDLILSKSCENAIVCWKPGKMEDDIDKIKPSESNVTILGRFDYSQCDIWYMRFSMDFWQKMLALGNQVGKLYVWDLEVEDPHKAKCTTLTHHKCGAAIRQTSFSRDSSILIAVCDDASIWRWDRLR
EZH2, sequence (Q15022 whole entry partner): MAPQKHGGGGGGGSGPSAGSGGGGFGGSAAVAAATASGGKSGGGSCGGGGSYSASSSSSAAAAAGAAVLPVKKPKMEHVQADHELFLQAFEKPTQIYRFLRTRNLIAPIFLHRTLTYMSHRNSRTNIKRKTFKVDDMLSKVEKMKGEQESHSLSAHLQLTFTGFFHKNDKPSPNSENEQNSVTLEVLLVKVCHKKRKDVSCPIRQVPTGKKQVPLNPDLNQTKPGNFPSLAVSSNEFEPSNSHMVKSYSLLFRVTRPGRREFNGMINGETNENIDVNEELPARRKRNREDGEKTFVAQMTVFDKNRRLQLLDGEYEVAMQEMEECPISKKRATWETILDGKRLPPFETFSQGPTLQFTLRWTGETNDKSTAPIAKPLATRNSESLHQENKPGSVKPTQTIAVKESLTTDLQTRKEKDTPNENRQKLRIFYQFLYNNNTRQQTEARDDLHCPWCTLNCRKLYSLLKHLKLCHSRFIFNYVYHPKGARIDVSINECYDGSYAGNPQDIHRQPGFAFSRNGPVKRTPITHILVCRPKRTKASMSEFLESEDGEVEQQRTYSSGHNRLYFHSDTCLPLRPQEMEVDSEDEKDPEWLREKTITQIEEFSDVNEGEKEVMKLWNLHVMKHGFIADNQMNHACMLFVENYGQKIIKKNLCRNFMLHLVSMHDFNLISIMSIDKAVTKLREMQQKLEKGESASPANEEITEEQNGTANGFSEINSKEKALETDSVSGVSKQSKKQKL
EZH2, sequence (Q09028 whole entry partner): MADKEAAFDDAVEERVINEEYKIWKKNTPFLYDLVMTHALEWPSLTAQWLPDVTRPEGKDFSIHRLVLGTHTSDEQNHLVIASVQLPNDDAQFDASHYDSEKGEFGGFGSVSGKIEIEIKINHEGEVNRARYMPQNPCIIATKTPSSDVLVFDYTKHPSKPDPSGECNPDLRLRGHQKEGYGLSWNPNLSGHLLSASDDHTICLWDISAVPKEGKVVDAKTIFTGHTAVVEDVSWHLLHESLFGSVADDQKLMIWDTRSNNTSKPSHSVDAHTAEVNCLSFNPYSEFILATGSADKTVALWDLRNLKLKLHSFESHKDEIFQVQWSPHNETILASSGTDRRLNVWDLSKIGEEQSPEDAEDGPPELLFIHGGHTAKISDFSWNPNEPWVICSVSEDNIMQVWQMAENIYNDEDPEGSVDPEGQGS
EZH2, sequence (Q6ZN18 whole entry partner): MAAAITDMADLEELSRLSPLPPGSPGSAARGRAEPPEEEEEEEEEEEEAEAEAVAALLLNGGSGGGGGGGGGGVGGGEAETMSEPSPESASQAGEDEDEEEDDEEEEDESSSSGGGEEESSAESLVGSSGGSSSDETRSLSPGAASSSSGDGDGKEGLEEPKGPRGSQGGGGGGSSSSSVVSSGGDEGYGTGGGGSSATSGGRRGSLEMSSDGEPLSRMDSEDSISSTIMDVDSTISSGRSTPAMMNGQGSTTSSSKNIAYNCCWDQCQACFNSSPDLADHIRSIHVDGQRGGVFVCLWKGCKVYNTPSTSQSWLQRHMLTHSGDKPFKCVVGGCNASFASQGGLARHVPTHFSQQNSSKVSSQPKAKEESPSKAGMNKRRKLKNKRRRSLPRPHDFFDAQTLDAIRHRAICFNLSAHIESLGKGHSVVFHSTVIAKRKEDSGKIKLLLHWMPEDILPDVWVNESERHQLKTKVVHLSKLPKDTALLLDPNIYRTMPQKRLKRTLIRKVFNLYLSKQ
Procedure: The EZH2 inhibitory ability of the synthesized adduct was assessed by Reaction Biology Corporation Malvern, PA. (http://www.reactionbiology.com).

Pt3R cells = test: Western blotting; format: cell-based, human
Procedure: Furthermore, the impact of compound 7 treatment on centromere proteins (CENPs) was assessed. As such, CENPs are the main constituent proteins of the kinetochore, which are essential for cell division. CENPs expression is elevated in GBM tissues and correlated with unfavorable overall survival in glioma patients.[53]
(§1) Thus, the ability of compound 7 to disturb redox homeostasis in TMZ-resistant cells and attain amplified therapeutic efficacy for GBM was evaluated. In both Pt3 and Pt3R cells, treatment with compound 7 for 48 h increased the ROS level (Figure 10A). […] Moreover, it was also observed that compound 7 increased mitochondria-derived ROS.
The detailed procedure was described in our previous study.[54],[55],[58],[59] Primary antibodies, anti-CENPA, anti-CENPE, anti-CENPF, and anti-CENPI antibodies, were purchased from abcam (Cambridge, U.K.); anti-CDK1 and anticyclin B1 antibodies were purchased from Santa Cruz Biotechnology, Inc. (Dallas, TX); and anti-EZH2 and anti-H3K27^me3 antibodies were purchased from GeneTex International Corporation (HsinChu, Taiwan), anti-Caspase-3 was purchased from GeneTex International Corporation; anti-cleaved Caspase-3 was purchased from Cell Signaling Technology (Danvers, Massachusetts).

mitochondria-derived ROS = test: MitoSOX assay; format: cell-based; settings: Figure 10C
Procedure: as §1
Figure 10 Compound 7 triggers ROS production from mitochondria. (A) After treatment for 48 h, cells were stained with the DHR reagent, and the fluorescent signal was estimated by flow cytometry. Treatment concentration of compound 7 was indicated. (B) Protein lysates were subjected to Western blotting using the indicated antibody. (C) After staining with MitoSOX (red) and Hoechst 33342 (blue), cellular signals were photographed and quantified D. Protein lysates were subjected to Western blotting using the indicated antibody.
Dihydrorhodamine 123 (DHR; Thermo Fisher Scientific, Waltham, MA) was used to label cellular ROS detected by the flow cytometry,[54] and the MitoSOX reagent (Thermo Fisher Scientific) was used to label mitochondrial ROS.[55]

[4] = Rat IV 2 mg/kg, read-out: Drug Conc. Avg.
[5] = Rat PO 20 mg/kg, read-out: Drug Conc. Avg.

Question: With `CCN(c1cc(-c2cccc(N(C)C(=O)c3cc(C(C)C)c(O)cc3O)c2)cc(C(=O)NCc2c(C)cc(C)[nH]c2=O)c1C)C1CCOCC1` [Compound 7, 3′-(2,4-Dihydroxy-5-isopropyl-N-methylbenzamido)-N-((4,6-dimethyl-2-oxo-1,2-dihydropyridin-3-yl)methyl)-5-(ethyl(tetrahydro-2H-pyran-4-yl)amino)-4-methyl-[1,1′-biphenyl]-3-carboxamide] as the compound, how does the IC50 [1] read?
Answer: 1010 ± 690 nM

Question: And the BBB penetration [2]?
Answer: able to penetrate blood–brain barrier (BBB)

Question: And the IC50 (HSP90a)?
Answer: 60.1 nM

Question: And the concentration at 0.03 hr ([3]; Rat IV 2 mg/kg, 0.03 hr, read-out: Drug Conc. Avg.)?
Answer: 2790 ng/mL

Question: And the concentration at 0.08 hr ([3]; Rat IV 2 mg/kg, 0.08 hr, read-out: Drug Conc. Avg.)?
Answer: 929 ng/mL

Question: What about the concentration at 0.25 hr [3, 4] of the same compound?
Answer: 406 ng/mL

Question: And the concentration at 0.5 hr [3, 4]?
Answer: 218 ng/mL

Question: And the concentration at 1 hr [3, 4]?
Answer: 76.6 ng/mL

Question: And the concentration at 2 hr [3, 4]?
Answer: 30.5 ng/mL

Question: What about the concentration at 4 hr [3, 4] of the same compound?
Answer: 5 ng/mL

Question: What about the concentration at 6 hr [3, 4] of the same compound?
Answer: 1.1 ng/mL

Question: What about the AUC(0-inf) ([3]; Rat IV, dose 2 mg/kg) of the same compound?
Answer: 470 ± 32 ng·h/mL

Question: What about the clearance ([3]; Rat IV, dose 2 mg/kg) of the same compound?
Answer: 81.8 ± 5.8 mL/min/kg

Question: What about the half-life ([3]; Rat IV, dose 2 mg/kg) of the same compound?
Answer: 0.8 h

Question: And the Vd ([3]; Rat IV, dose 2 mg/kg, read-out: Vss)?
Answer: 3 ± 0.5 L/kg

Question: And the bioavailability ([3]; Rat PO 20 mg/kg vs IV 2 mg/kg)?
Answer: 2.3%

Question: And the concentration at 0.25 hr [3, 5]?
Answer: 23 ng/mL

Question: And the concentration at 0.5 hr [3, 5]?
Answer: 11.1 ng/mL

Question: And the concentration at 1 hr [3, 5]?
Answer: 23.8 ng/mL

Question: What about the concentration at 2 hr [3, 5] of the same compound?
Answer: 15.3 ng/mL

Question: And the concentration at 4 hr [3, 5]?
Answer: 18.1 ng/mL

Question: What about the concentration at 6 hr [3, 5] of the same compound?
Answer: 4 ng/mL

Question: What about the concentration at 8 hr ([3]; Rat PO 20 mg/kg, 8 hr, read-out: Drug Conc. Avg.) of the same compound?
Answer: 2.9 ng/mL

Question: And the AUC(0-inf) ([3]; Rat PO, dose 20 mg/kg)?
Answer: 106 ± 62 ng·h/mL

Question: What about the Cmax ([3]; Rat PO, dose 20 mg/kg) of the same compound?
Answer: 23.8 ± 8.9 ng/mL

Question: What about the Tmax ([3]; Rat PO, dose 20 mg/kg) of the same compound?
Answer: 1 h

Question: What about the half-life ([3]; Rat PO, dose 20 mg/kg) of the same compound?
Answer: 1.8 ± 0.5 h

Question: And the “growth of Pt#3-R-induced tumor” value (Pt#3-R-induced tumor)?
Answer: significantly decreased the growth

Question: What about the IC50 (EZH2) of the same compound?
Answer: 6.29 nM

Question: And the “EZH2 expression and EZH2-modulated H3K27 trimethylation” value (Pt3R cells; Figure 10B)?
Answer: inhibited

Question: What about the “proteins involved in cleaning ROS (catalase, SOD1, glutathione reductase, GPX1)” value (Pt3R cells; Figure 10B) of the same compound?
Answer: decreased

Question: And the “expression of cleaved caspase-3” value (Pt3R cells; Figure 10D)?
Answer: upregulate

Question: And the CENPs protein expression (Pt3R cells; Pt3R (Figure 8D))?
Answer: decreased

Question: What about the “expression of CDK1 and cyclin B1” value (Pt3R cells; Pt3R (Figure 8D)) of the same compound?
Answer: downregulated

Question: And the “MitoSOX red signal representing ROS produced from mitochondria” value (mitochondria-derived ROS)?
Answer: remarkably enhanced
